The record followed here is ChEMBL document CHEMBL1157334, “Neuroprotective diterpenes from the fruiting body of Antrodia camphorata” (2006).

Experiment [1] can be described thus: Neuroprotective effect against amyloid beta(25 to 35)-induced cell death in Harlan Sprague-Dawley rat pups cortical neurons assessed as cell death at 20 uM treated 2 hrs before amyloid beta(25 to 35) treatment after 40 hrs by MTT assay. The settings on record: for cell death at 20 µM: Rattus norvegicus, Harlan Sprague-Dawley, Cortical neurone.
A short description of experiment [2]: Neuroprotective effect against amyloid beta(25 to 35)-induced cell death in Harlan Sprague-Dawley rat pups cortical neurons assessed as cell death at 10 uM treated 2 hrs before amyloid beta(25 to 35) treatment after 40 hrs by MTT assay.

The structures appear in SMILES notation.

`C=C1CC[C@@H]2[C@](C)(CO)[C@H](O)CC[C@@]2(C)[C@@H]1/C=C/C1=CCOC1=O`: the cell death at 20 µM in experiment [1] was found to be 29.5%.
Consider `C=C1CC[C@@H]2[C@](C)(CC[C@H](O)[C@]2(C)CO)[C@H]1/C=C/C1CCOC1=O` (stereo in doubt; 2), for which the cell death in experiment [1] was determined as 26.3%; in experiment [2], 29.5%.
In the case of `C=C1CC[C@@H]2[C@](C)(CC[C@H](O)[C@]2(C)CO)[C@H]1/C=C/C1CCOC1=O` (stereo in doubt; 3), in experiment [1], the cell death at 20 µM amounted to 29.3%.
As for `C=C1CC[C@H]2[C@@](C)(CO)CCC[C@]2(C)[C@H]1CCC1CCOC1=O` (some centres not stated), the cell death at 20 µM in experiment [1] was determined as 30.8%.
The same measure, in the same setting: under `CC(=O)N[C@@H](CC(=O)O)C(=O)N[C@@H](CCC(=O)O)C(=O)N[C@H](C(=O)N[C@H](C=O)CC(=O)O)C(C)C` stands 23.1%; under `C=C1CC[C@H]2[C@@](C)(CO)CCC[C@]2(C)[C@H]1CCC1=CCOC1=O`, 32.6%.
